Structures are written as SMILES. Entries after “also recorded” stand apart in the source; their conditions may differ.

The source of these data is EP0719267B1, “SECOND MESSENGER CELL SIGNALING INHIBITORS” (CELL THERAPEUTICS, INC., priority 1993, dated 1994).

For one data set, the system named is C57BL/6 splenocytes. Kind of data set: Antigen specific anergy induction (splenocytes with 2PK3 B cell tumor, restimulation). It is filed as cell-based, murine. As for the experimental part:
A B cell tumor, 2PK3 (H-2d) was used as a stimulating cell for C57BL/6 splenocytes (H-2b), a responding cell. Mixed cultures of B-cell tumor and splenocytes were incubated for 5 days with and without 1 µM of compound no. 45. After 5 days, the cells were washed and resuspended with either media, the original antigen (2PK3) or anti-CD3. Tritiated thymidine was added to the resulting suspensions and thymidine incorporation measured 24 hours later. As illustrated, culture treated with inventive compound no. […] However, cultures incubated with inventive compound no. […] Thus, C57BL/6 splenocytes were inhibited from responding to an original antigen by the inventive compound used in the pre-incubation step.
As shown in figures 56A and 56B, inventive compound no. 45 also induces antigen specific T-cell anergy. Procedurally, murine splenocytes were stimulated with an alloantigen target cell line 2PK3 in the presence or absence of compound no. 45 (1 µM; approximate IC50). Following 5 days in culture, the cells were washed, re-cultured and restimulated with the original priming antigen and anti-CD3 monoclonal antibody. […] 45 during the five day primary culture. […] Although cells pretreated with inventive compound no. 45 could respond normally to polyclonal stimulation, those that were challenged with the alloantigen could not. Therefore, compound no. 45 induced a specific state of unresponsiveness or anergy to the alloantigen.

The subject of data set [1] is human mixed leukocyte reaction (MLR). Kind of data set: Mixed leukocyte reaction (MLR), two HLA disparate individuals. It is filed as cell-based. To be noted: 144 h, 6 days co-culture. The protocol: (§1) Figures 50A and 50B illustrate that compound no. 45 inhibits a murine mixed tumor lymophocyte culture (MTLC) and a human mixed leukocyte reaction (MLR). In the MTLC, splenocytes were stimulated (co-culture) with an alloantigen, B cell tumor target cell line (2PK3) in the presence or absence of compound no. 45. Cells were stimulated for 3 days, ^3H-TdR was added and the cells were harvested 4 hours later. Incorporation of ^3H-TdR was determined by liquid scintillation. Background counts were 1000-1200 CPM. For the human MLR, purified peripheral lymphocytes from two HLA disparate individuals were co-cultured for 6 days with or without compound no. 45. On the 7th day the cultures were pulsed with ^3HTdR for 24 hours and counted by scintillation.

The subject of data set [2] is murine mixed tumor lymophocyte culture (MTLC). The experiment in a line: Mixed tumor lymphocyte culture (MTLC), splenocytes with 2PK3. The format is cell-based. The protocol: as §1
In an assay related to the MTLC assay, cytokines levels were measured by ELISA from the supernatants of an MTLC culture. […] 45. Figures 60B and 60C illustrate that compound no.

Data set [3] concerns murine thymocyte proliferation. Kind of data set: Thymocyte proliferation co-stimulated by ConA and IL-2 (tritiated thymidine). The format is cell-based, Balb/C mice. The conditions noted are these: for inhibition with delayed addition: 1 µM.
For data set [4], the system named is human pulmonary smooth muscle cells. Kind of data set: Growth factor-induced proliferation of pulmonary smooth muscle cells. It is filed as cell-based. The conditions noted are these: 5 µM. The protocol:
58 on either aFGF or bFGF-induced proliferation in human pulmonary smooth muscle cells. Cells were grown in reduced serum (0.5% fetal calf serum) for 24 hours prior to stimulating with various concentrations of […]. Cells, stimulated with either aFGF or bFGF, were analyzed in the presence and absence of compound no. 58 (5 µM). Assay results are reported in figures 25A and 25B (aFGF and bFGF, respectively). As shown in the results, compound no.
Figures 65A-65F illustrate inhibition of proliferation in either human aortic or pulmonary smooth muscle cells (SMC) by inventive compound no. 58. Procedurally, cells were cultured in 0.5% serum containing medium 24 hours prior to stimulation with various concentrations of either PDGF (figs. 65A and 65B), acidic FGF (figs. 65C and 65D) or basic FGF (figs. 65E and 65F). Cells were stimulated for 24 hours prior to labeling with ^3H-TdR for 4 hours and harvested and counted by scintillation. Compound no. 58 was added 1 hour prior to stimulation at a concentration of 5 µM. Even at points of maximum stimulation of the growth factors, compound no. […] In addition cell number was assessed and those treated with compound no.

The next data set deals with human TNFα. Kind of data set: Whole blood ex vivo assay of TNF release (ELISA). It is filed as cell-based. The conditions noted are these: mouse TNFα and human IL-1α, 6 hours. The protocol:
Figure 74 illustrates that inventive compound no. […] 58 using a human whole blood ex vivo assay. In this assay, human whole blood was stimulated with mouse TNFα and human IL-1α with or without various concentrations of inventive compound no. 58. After 6 hours, the plasma was analyzed for human TNFα levels using a commercial ELISA.
A general note: In an ELISA, binding on a coated surface is turned into a signal by an enzyme label.

What is called IC50 is the point on the concentration scale where inhibition reaches its midpoint. For the compound `CCCCCCCCNCC(O)CCCCCCCCCn1c(=O)c2c(ncn2C)n(C)c1=O` (stereo not drawn) [compound no. 45], in the data set with C57BL/6 splenocytes (1 µM), the “response to anti-CD3 after 5 days culture with compound” value is on record as “responded equivilantly to anti-CD3; also recorded: polyclonal T-cell response to anti-CD3 was not affected”. Besides, the “response to original/priming antigen 2PK3 after 5 days culture with compound” value in the data set with C57BL/6 splenocytes (1 µM) is “decreased response to primary antigen, 2PK3; also recorded: secondary response to the priming antigen was inhibited”. Further, the IC50 in the data set on C57BL/6 splenocytes (Mus musculus, Splenocyte, alloantigen target cell line 2PK3, read-out: approximate IC50) is about 1000 nM; in data set [1], about 500 nM; in data set [2] (Mus musculus, 72 h, 3 days), about 500 nM; in data set [3] (Mus musculus, Thymocyte, Con A (0.25 µg/ml) and IL-2 (20 ng/ml), 96 hours), about 350 nM. The IFN-γ release entry in data set [2] (ELISA of supernatants) is given as “inhibited IFN-γ release”. Also, the “IL-2 or TNFα release” value in data set [2] (ELISA of supernatants) is “did not inhibit either IL-2 or TNFα release from the MTLC”. Moreover, the overall proliferation result in data set [2] (fig. 60A) was “inhibition of overall proliferation”. The “inhibition with delayed addition” value was “significant inhibition remained even at 72 and 92 hours following addition of IL-2” in data set [3] (added 72 and 92 hours after IL-2); “maximally inhibits thymocyte proliferation even when added 24 hours following the IL-2 stimulation” in data set [3] (added 24 hours after IL-2).

On to `COc1cc(CNCC(O)CCCCCCCCCn2c(=O)c3c(ncn3C)n(C)c2=O)cc(OC)c1OC` (stereo not drawn) [compound no. 58, 1-[11-(3,4,5-Trimethoxybenzylamino)-10-hydroxyundecyl]-3,7-dimethylxanthine], for which, in data set [4], the “inhibition of aFGF and bFGF-induced proliferation” value was “a potent inhibitor of both aFGF and bFGF-induced proliferation”; the toxic effect result is recorded as “No toxic effect”. The “inhibition of proliferation at maximum stimulation by PDGF, acidic FGF or basic FGF” value in data set [4] (added 1 hour prior) is “completely inhibited cellular proliferation in both aortic and pulmonary SMC”. For the same compound, in the data set with human TNFα, the TNF release entry was “inhibited TNF release”.
